In PMC3914206:

How the values were obtained:
Type in all cases: binding
Design in all cases: KINOMEscan: ABL1(F317L)-phosphorylated / KINOMEscan: ABL1(H396P)-nonphosphorylated / KINOMEscan: ABL1(H396P)-phosphorylated / KINOMEscan: ABL1(M351T)-phosphorylated / KINOMEscan: ABL1(T315I)-phosphorylated / KINOMEscan: ABL1-nonphosphorylated / KINOMEscan: ABL1-phosphorylated / KINOMEscan: ACVR2A / KINOMEscan: ACVR2B / KINOMEscan: ADCK3 / KINOMEscan: ADCK4 / KINOMEscan: AKT1 / KINOMEscan: AKT3 / KINOMEscan: ALK / KINOMEscan: ARK5 / KINOMEscan: AURKA / KINOMEscan: AURKC / KINOMEscan: BIKE / KINOMEscan: BMPR1A / KINOMEscan: BMPR1B / KINOMEscan: BMX / KINOMEscan: BRK / KINOMEscan: BRSK1 / KINOMEscan: BRSK2 / KINOMEscan: CAMK1 / KINOMEscan: CAMK1D / KINOMEscan: CAMK1G / KINOMEscan: CAMK2A / KINOMEscan: CAMK2B / KINOMEscan: AAK1 / KINOMEscan: CAMK2D / KINOMEscan: CAMK2G / KINOMEscan: ABL1(F317I)-nonphosphorylated / KINOMEscan: ABL1(F317I)-phosphorylated / KINOMEscan: ABL1(F317L)-nonphosphorylated: unit: % Ctrl
Conditions in all cases: Compound Concentration 10 µM
panel of 442 kinases [1] = biological target: T1, panel of 442 kinases (Homo sapiens, UniProt P49674)
T1 construct: purchased KINOMEscan
T1 sequence (P49674 whole entry): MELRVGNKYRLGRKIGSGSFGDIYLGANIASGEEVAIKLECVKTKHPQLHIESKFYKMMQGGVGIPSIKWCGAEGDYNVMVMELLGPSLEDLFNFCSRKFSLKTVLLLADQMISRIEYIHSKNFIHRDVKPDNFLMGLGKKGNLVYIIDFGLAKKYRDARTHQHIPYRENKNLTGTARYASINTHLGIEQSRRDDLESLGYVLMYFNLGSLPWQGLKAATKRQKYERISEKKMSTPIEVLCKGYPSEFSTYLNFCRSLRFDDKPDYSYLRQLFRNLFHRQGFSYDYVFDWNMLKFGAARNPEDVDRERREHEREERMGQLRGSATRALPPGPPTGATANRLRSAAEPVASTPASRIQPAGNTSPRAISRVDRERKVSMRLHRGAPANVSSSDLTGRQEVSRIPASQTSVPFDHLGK
Description: (§1) We assessed the selectivity of members of this scaffold using the KINOMEscan methodology across a near comprehensive panel of 442 kinases [[18,27]].

panel of 442 kinases [2] = biological target: T2, panel of 442 kinases (Homo sapiens, UniProt Q2M2I8)
T2 construct: purchased KINOMEscan
T2 sequence (Q2M2I8 whole entry): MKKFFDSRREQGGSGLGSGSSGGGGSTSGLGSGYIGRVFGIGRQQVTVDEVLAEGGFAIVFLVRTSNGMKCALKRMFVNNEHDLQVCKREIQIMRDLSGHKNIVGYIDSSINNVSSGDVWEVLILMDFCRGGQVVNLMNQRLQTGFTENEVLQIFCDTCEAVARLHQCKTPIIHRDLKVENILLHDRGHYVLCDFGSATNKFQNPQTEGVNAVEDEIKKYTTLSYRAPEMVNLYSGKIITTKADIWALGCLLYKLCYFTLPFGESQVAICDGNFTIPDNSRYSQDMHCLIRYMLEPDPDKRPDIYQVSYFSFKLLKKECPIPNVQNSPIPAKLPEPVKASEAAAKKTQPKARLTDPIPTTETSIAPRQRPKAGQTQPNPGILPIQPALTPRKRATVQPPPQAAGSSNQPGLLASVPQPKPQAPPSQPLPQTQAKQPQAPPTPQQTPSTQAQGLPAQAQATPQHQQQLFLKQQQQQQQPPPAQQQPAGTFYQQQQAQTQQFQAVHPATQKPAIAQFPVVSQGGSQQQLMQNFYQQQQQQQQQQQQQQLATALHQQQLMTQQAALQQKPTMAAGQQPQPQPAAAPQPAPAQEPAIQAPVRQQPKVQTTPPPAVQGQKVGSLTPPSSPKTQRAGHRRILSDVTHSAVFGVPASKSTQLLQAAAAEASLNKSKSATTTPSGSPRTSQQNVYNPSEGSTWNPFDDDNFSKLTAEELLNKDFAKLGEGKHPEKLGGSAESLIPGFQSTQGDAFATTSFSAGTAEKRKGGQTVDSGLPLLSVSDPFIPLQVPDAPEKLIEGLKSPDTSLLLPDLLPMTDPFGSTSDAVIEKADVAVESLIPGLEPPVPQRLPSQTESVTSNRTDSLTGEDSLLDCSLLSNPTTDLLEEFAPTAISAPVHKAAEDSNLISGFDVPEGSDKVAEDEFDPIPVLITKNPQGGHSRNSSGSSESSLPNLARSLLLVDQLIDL
Description: as §1

panel of 442 kinases [3] = biological target: T3, panel of 442 kinases (Homo sapiens, UniProt P16234)
T3 construct: purchased KINOMEscan
T3 sequence (P16234 24-1089): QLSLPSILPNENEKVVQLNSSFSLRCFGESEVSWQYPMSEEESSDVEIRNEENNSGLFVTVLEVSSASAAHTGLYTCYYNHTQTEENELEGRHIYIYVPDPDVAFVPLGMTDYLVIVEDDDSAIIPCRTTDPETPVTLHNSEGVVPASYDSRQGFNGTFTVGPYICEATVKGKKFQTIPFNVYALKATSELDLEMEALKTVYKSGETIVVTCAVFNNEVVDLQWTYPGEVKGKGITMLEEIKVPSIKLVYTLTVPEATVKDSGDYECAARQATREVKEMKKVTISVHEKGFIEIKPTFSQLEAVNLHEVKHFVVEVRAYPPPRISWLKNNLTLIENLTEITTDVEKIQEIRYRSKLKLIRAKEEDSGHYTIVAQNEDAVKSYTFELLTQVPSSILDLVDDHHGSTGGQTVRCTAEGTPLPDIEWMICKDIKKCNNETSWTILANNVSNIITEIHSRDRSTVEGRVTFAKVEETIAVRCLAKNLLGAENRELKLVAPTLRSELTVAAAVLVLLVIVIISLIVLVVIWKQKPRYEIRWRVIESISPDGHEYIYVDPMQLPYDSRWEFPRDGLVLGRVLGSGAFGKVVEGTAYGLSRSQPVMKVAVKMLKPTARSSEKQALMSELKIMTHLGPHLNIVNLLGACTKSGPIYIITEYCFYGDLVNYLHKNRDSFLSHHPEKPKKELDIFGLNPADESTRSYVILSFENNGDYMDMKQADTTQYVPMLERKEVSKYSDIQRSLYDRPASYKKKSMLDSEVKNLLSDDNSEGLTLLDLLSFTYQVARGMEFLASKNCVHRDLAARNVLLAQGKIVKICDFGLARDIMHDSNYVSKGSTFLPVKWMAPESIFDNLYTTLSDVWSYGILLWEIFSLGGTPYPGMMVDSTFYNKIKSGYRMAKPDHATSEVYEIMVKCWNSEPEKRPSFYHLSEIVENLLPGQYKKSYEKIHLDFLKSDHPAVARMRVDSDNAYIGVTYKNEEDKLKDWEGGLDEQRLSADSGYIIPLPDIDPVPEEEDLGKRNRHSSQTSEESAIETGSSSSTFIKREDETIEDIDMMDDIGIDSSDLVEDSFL
Description: as §1

panel of 442 kinases [4] = biological target: T4, panel of 442 kinases (Homo sapiens, UniProt P49760)
T4 construct: purchased KINOMEscan
T4 sequence (P49760 whole entry): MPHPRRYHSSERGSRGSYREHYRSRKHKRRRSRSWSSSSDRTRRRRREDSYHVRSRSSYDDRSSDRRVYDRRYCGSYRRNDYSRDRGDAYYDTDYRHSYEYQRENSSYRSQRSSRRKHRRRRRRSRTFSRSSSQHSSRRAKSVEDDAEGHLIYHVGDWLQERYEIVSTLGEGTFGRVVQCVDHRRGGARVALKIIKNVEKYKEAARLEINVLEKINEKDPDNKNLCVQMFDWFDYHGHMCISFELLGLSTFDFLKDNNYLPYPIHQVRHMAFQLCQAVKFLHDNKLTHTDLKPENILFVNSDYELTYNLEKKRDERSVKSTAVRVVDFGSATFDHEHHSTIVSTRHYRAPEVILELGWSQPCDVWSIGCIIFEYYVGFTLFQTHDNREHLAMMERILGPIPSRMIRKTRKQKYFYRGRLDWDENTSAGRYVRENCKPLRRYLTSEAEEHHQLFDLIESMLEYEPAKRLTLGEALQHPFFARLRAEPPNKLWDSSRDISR
Description: as §1

With `COc1cc(C(=O)N2CCC(N3CCN(C)CC3)CC2)ccc1Nc1ncc2c(n1)N(C)c1ccccc1C(=O)N2C` [15 (LRRK2-IN-1)] the “KINOMEscan: CSNK1E” value (panel of 442 kinases [1]) was 95, the “KINOMEscan: AAK1” value (panel of 442 kinases [2]) was 84 and the “KINOMEscan: PDGFRA” value (panel of 442 kinases [3]) was 100. For the same compound, the “KINOMEscan: CLK2” value (panel of 442 kinases [4]) was 72.
With `COc1cc(C(=O)N2CCC(N3CCN(C)CC3)CC2)ccc1Nc1ncc2c(n1)N1CCc3cccc(c31)C(=O)N2C` [Compound 24] the “KINOMEscan: CSNK1E” value (panel of 442 kinases [1]) was 81 and the “KINOMEscan: CLK2” value (panel of 442 kinases [4]) was 25.
For `COc1cc(C(=O)N2CCC(N3CCN(C)CC3)CC2)ccc1Nc1ncc2c(n1)N(C1CCCC1)c1ccccc1C(=O)N2C` [Compound 25, 11-cyclopentyl-2-((2-methoxy-4-(4-(4-methylpiperazin-1-yl)piperidine-1-carbonyl)phenyl)amino)-5-methyl-5H-benzo[e]pyrimido[5,4-b][1,4]diazepin-6(11H)-one], the “KINOMEscan: CSNK1E” value (panel of 442 kinases [1]) was 100, the “KINOMEscan: AAK1” value (panel of 442 kinases [2]) was 89 and the “KINOMEscan: PDGFRA” value (panel of 442 kinases [3]) was 100. For the same compound, the “KINOMEscan: CLK2” value (panel of 442 kinases [4]) was 79.
In the case of `CCOc1cc(C(=O)N2CCC(N3CCN(C)CC3)CC2)ccc1Nc1ncc2c(n1)N(C1CCCC1)c1ccccc1C(=O)N2C` [Compound 26], the “KINOMEscan: CSNK1E” value (panel of 442 kinases [1]) is reported as 100, the “KINOMEscan: AAK1” value (panel of 442 kinases [2]) is reported as 100 and the “KINOMEscan: PDGFRA” value (panel of 442 kinases [3]) is reported as 100. The “KINOMEscan: CLK2” value (panel of 442 kinases [4]) was 86.
